From PMC5956543, “Antimicrobial and antioxidant activities of triterpenoid and phenolic derivatives from two Cameroonian Melastomataceae plants: Dissotis senegambiensis and Amphiblemma monticola” (BMC Complementary and Alternative Medicine, 2018)
Converted amounts (≈) assume the structure as drawn.

What was measured:
C. neoformans H99 = assay: Broth microdilution antimicrobial assay (MIC/MMC); assay type: cell-based, Cryptococcus neoformans
Method: (§1) The microorganisms used in this study include four bacterial (Staphylococcus aureus ATCC25923, methicillin sensitive S. aureus MSSA1, methicillin resistant S. aureus MRSA3 and methicillin resistant S. aureus MRSA4) and three yeast strains (Candida albicans ATCC10231, Candida tropicalis PK233 and Cryptococcus neoformans H99). These microorganisms were taken from our laboratory collection. The fungal and bacterial strains were grown at 37 °C and maintained on Sabouraud Dextrose Agar (SDA, Conda, Madrid, Spain) and nutrient agar (NA, Conda) slants respectively.
(§2) The inocula of bacteria and yeasts were prepared from overnight cultures as previously described. Absorbance was read spectrophotometrically at 530 nm and 600 nm for yeasts and bacteria respectively. The final concentrations of microbial suspensions were 2.5 × 10^5 cells/mL for yeasts and 10^6 CFU/mL for bacteria.
(§3) The antimicrobial activity was evaluated by determining the minimum inhibitory concentrations (MICs). MICs of extracts and compounds were determined by broth micro dilution. Each test sample was dissolved in 10% v/v aqueous dimethylsulfoxide (DMSO) to give a stock solution. This was serially diluted two-fold in Mueller-Hinton Broth (MHB) for bacteria and Sabouraud Dextrose Broth (SDB) for fungi to obtain a concentration range of 4096 to 0.25 μg/mL. Then, 100 μL of each sample concentration was added to respective wells (96-well micro plate) containing 90 μL of SDB/ MHB and 10 μL of inoculum to give final concentration ranges of 2048 to 4 μg/mL (for extracts) and 256 to 0.125 μg/mL (for compounds). Dilutions of nystatin (Sigma-Aldrich, Steinheim, Germany) and ciprofloxacin (Sigma-Aldrich, Steinheim, Germany) were used as positive controls for yeasts and bacteria respectively. Broth with 10 μL of DMSO was used as negative control. The cultured micro plates were covered; then, the contents of each well were mixed thoroughly using a plate shaker (Flow Laboratory, Germany) and incubated at 37 °C for 24 h (bacteria) and 48 h (yeasts) under shaking. After the incubation period, MICs were assessed visually and were taken as the lowest sample concentration at which there was no growth or virtually no growth. The lowest concentration that yielded no growth after the sub-culturing was considered as the minimum microbicidal concentrations (MMCs). All the tests were performed in triplicate.

[1] = tested on: bacterial and fungal strains; assay: Broth microdilution MIC, range over all tested strains; assay type: cell-based
Method: as §1, §2, §3

yeast strains = assay: Broth microdilution MIC, range over the yeast strains; assay type: cell-based; settings: range over the three yeast strains
Method: as §1, §2
The antimicrobial activity was evaluated by determining the minimum inhibitory concentrations (MICs). MICs of extracts and compounds were determined by broth micro dilution. Each test sample was dissolved in 10% v/v aqueous dimethylsulfoxide (DMSO) to give a stock solution. […] After the incubation period, MICs were assessed visually and were taken as the lowest sample concentration at which there was no growth or virtually no growth. […]

C. albicans ATCC10231 = assay: Broth microdilution antimicrobial assay (MIC/MMC); assay type: cell-based, Candida albicans
Method: as §1, §2, §3

C. tropicalis PK233 = assay: Broth microdilution antimicrobial assay (MIC/MMC); assay type: cell-based, Candida tropicalis
Method: as §1, §2, §3

S. aureus MSSA1 = assay: Broth microdilution antimicrobial assay (MIC/MMC); assay type: cell-based, Staphylococcus aureus
Method: as §1, §2, §3

S. aureus MRSA3 = assay: Broth microdilution antimicrobial assay (MIC/MMC); assay type: cell-based, Staphylococcus aureus
Method: as §1, §2, §3

S. aureus ATCC25923 = assay: Broth microdilution antimicrobial assay (MIC/MMC); assay type: cell-based, Staphylococcus aureus
Method: as §1, §2, §3

S. aureus MRSA4 = assay: Broth microdilution antimicrobial assay (MIC/MMC); assay type: cell-based, Staphylococcus aureus
Method: as §1, §2, §3

[2] = Staphylococcus aureus, 37 °C, 24 h
[3] = Staphylococcus aureus, 24 h, no growth after sub-culturing

O=c1oc2c(O)c(O)cc3c(=O)oc4c(O)c(O)cc1c4c23 [Compound 10, ellagic acid]
MMC/MIC (C. neoformans H99): 1
MIC (C. neoformans H99; Cryptococcus neoformans, 37 °C, 48 h, read-out: MIC): 16 µg/mL (≈ 52.9 µM)
MFC (C. neoformans H99; Cryptococcus neoformans, 48 h, no growth after sub-culturing): 16 µg/mL (≈ 52.9 µM)
antimicrobial activity (in words) ([1]; all the tested bacterial and fungal species): active against all the tested bacterial and fungal species
MIC ([1]; range over all bacterial and fungal strains, read-out: MIC): 8 to 32 µg/mL (≈ 26.5 to 106 µM)
MIC (yeast strains): 8 to 16 µg/mL (≈ 26.5 to 52.9 µM)
MMC/MIC (C. albicans ATCC10231): 1
MIC (C. albicans ATCC10231; Candida albicans, 37 °C, 48 h, read-out: MIC): 16 µg/mL (≈ 52.9 µM)
MMC (C. albicans ATCC10231; no growth after sub-culturing): 16 µg/mL
MMC/MIC (C. tropicalis PK233): 1
MIC (C. tropicalis PK233; Candida tropicalis, 37 °C, 48 h, read-out: MIC): 8 µg/mL (≈ 26.5 µM)
MFC (C. tropicalis PK233; Candida tropicalis, 48 h, no growth after sub-culturing): 8 µg/mL (≈ 26.5 µM)
MMC/MIC (S. aureus MSSA1): 1
MIC (S. aureus MSSA1; [2]): 16 µg/mL (≈ 52.9 µM)
MBC (S. aureus MSSA1; [3]): 16 µg/mL (≈ 52.9 µM)
activity against methicillin-resistant S. aureus (in words) (S. aureus MRSA3; MRSA3): prominent activity
MMC/MIC (S. aureus MRSA3; S. aureus MRSA3): 2
MBC (S. aureus MRSA3; Staphylococcus aureus, 24 h, S. aureus MRSA3, no growth after sub-culturing): 64 µg/mL (≈ 212 µM)
MIC (S. aureus MRSA3; Staphylococcus aureus, S. aureus MRSA3, 37 °C, 24 h): 32 µg/mL (≈ 106 µM)
MMC/MIC (S. aureus ATCC25923): 2
MIC (S. aureus ATCC25923; [2]): 8 µg/mL (≈ 26.5 µM)
MBC (S. aureus ATCC25923; [3]): 16 µg/mL (≈ 52.9 µM)
activity against methicillin-resistant S. aureus (in words) (S. aureus MRSA4; MRSA4): prominent activity
MMC/MIC (S. aureus MRSA4; S. aureus MRSA4): 1
MBC (S. aureus MRSA4; Staphylococcus aureus, 24 h, S. aureus MRSA4, no growth after sub-culturing): 32 µg/mL (≈ 106 µM)
MIC (S. aureus MRSA4; Staphylococcus aureus, S. aureus MRSA4, 37 °C, 24 h): 32 µg/mL (≈ 106 µM)
